In brackets after ≈: the same amount, converted by molar mass.
What was measured:
[1] = tested on: MRSA; assay: MIC by broth microdilution in CA-MHB (CLSI); conditions: Staphylococcus aureus, 18 h, read-out: MIC on MRSA
Experimental: Minimal inhibitory concentrations (MIC) were determined by broth microdilution method in cation-adjusted Mueller-Hinton (CA-MHB) broth according to the CLSI guideline. From an overnight culture plate, cells were resuspended in 0.9% (w/v) saline solution and bacterial inoculum was prepared in CA-MHB with 5×10^5 CFU/ml. Compounds were two-fold serially diluted in CA-MHB and 10 μL of this 10× concentrated samples were added into the 96-well plate. 90 μL of bacterial suspension was finally added to the compounds. Plates were covered and incubated without shaking at 35° C. for 18 hours. Every experiment contained an antibiotic as quality control. MIC was determined visually as the lowest concentration of a compound that prevents visible growth of the bacteria and the plates were scanned for documentation.

[2] = tested on: HepG2; conditions: human, 48 h

Cc1ccc(S(=O)(=O)c2nnn3c2[nH]c(=O)c2ccc(C#N)cc23)c(C)c1 [Compound 6, 3-(2,4-dimethylphenyl)sulfonyl-5-oxo-4H-triazolo[1,5-a]quinazoline-8-carbonitrile]
MIC [1]: ≥ 100 µM | LD50 HepG2 [2]: >=100 μM

CC(C)c1ccc(S(=O)(=O)c2nnn3c2[nH]c(=O)c2cccc(Cl)c23)cc1 [Compound 9, 9-chloro-3-(4-isopropylphenyl)sulfonyl-4H-triazolo[1,5-a]quinazolin-5-one]
MIC [1]: 25 µM (≈ 10.1 µg/mL) | LD50 HepG2 [2]: 25 µM

COc1ccc2c(=O)[nH]c3c(S(=O)(=O)c4ccc(C)cc4OC)nnn3c2c1 [Compound 10, 8-methoxy-3-(2-methoxy-4-methyl-phenyl)sulfonyl-4H-triazolo[1,5-a]quinazolin-5-one]
MIC [1]: ≥ 100 µM | LD50 HepG2 [2]: >=100 μM

COc1ccc2c(=O)[nH]c3c(S(=O)(=O)c4ccc(OC(C)C)cc4C)nnn3c2c1 [Compound 11, 3-(4-isopropoxy-2-methyl-phenyl)sulfonyl-8-methoxy-4H-triazolo[1,5-a]quinazolin-5-one]
MIC [1]: ≥ 100 µM | LD50 HepG2 [2]: >=100 μM

COc1ccc2c(=O)[nH]c3c(S(=O)(=O)c4ccc(Br)cc4C)nnn3c2c1 [Compound 13, 3-(4-bromo-2-methyl-phenyl)sulfonyl-8-methoxy-4H-triazolo[1,5-a]quinazolin-5-one]
MIC [1]: ≥ 100 µM | LD50 HepG2 [2]: >=100 μM

COc1ccc2c(=O)[nH]c3c(S(=O)(=O)c4ccc(C)cc4F)nnn3c2c1 [Compound 14, 3-(2-fluoro-4-methyl-phenyl)sulfonyl-8-methoxy-4H-triazolo[1,5-a]quinazolin-5-one]
MIC [1]: ≥ 100 µM | LD50 HepG2 [2]: >=100 μM

COc1ccc(S(=O)(=O)c2nnn3c2[nH]c(=O)c2ccc(OC)cc23)c(C)c1 [Compound 15, 8-methoxy-3-(4-methoxy-2-methyl-phenyl)sulfonyl-4H-triazolo[1,5-a]quinazolin-5-one]
MIC [1]: ≥ 100 µM | LD50 HepG2 [2]: >=100 μM

COc1ccc2c(=O)[nH]c3c(S(=O)(=O)c4ccc(NC(C)=O)cc4C)nnn3c2c1 [Compound 16, N-[4-[(8-methoxy-5-oxo-4H-triazolo[1,5-a]quinazolin-3-yl)sulfonyl]-3-methyl-phenyl]acetamide]
MIC [1]: ≥ 100 µM | LD50 HepG2 [2]: >=100 μM

COc1ccc2c(=O)[nH]c3c(S(=O)(=O)c4ccc(F)cc4C)nnn3c2c1 [Compound 17, 3-(4-fluoro-2-methyl-phenyl)sulfonyl-8-methoxy-4H-triazolo[1,5-a]quinazolin-5-one]
MIC [1]: ≥ 100 µM | LD50 HepG2 [2]: >=100 μM

COc1ccc2c(=O)[nH]c3c(S(=O)(=O)c4ccc(OC(F)(F)F)cc4C)nnn3c2c1 [Compound 19, 8-methoxy-3-[2-methyl-4-(trifluoromethoxy)phenyl]sulfonyl-4H-triazolo[1,5-a]quinazolin-5-one]
MIC [1]: ≥ 100 µM | LD50 HepG2 [2]: >=100 μM

COc1ccc2c(=O)[nH]c3c(S(=O)(=O)c4ccc(Cl)cc4C)nnn3c2c1 [Compound 20, 3-(4-chloro-2-methyl-phenyl)sulfonyl-8-methoxy-4H-triazolo[1,5-a]quinazolin-5-one]
MIC [1]: ≥ 100 µM | LD50 HepG2 [2]: >=100 μM

COc1ccc2c(=O)[nH]c3c(S(=O)(=O)c4ccc(C#N)cc4C)nnn3c2c1 [Compound 22, 4-[(8-methoxy-5-oxo-4H-triazolo[1,5-a]quinazolin-3-yl)sulfonyl]-3-methyl-benzonitrile]
MIC [1]: ≥ 100 µM | LD50 HepG2 [2]: >=100 μM

COc1ccc2c(=O)[nH]c3c(S(=O)(=O)c4ccc(C(=O)O)cc4C)nnn3c2c1 [Compound 23, 4-[(8-methoxy-5-oxo-4H-triazolo[1,5-a]quinazolin-3-yl)sulfonyl]-3-methyl-benzoic acid]
MIC [1]: ≥ 100 µM | LD50 HepG2 [2]: >=100 μM

CCOC(=O)c1ccc(S(=O)(=O)c2nnn3c2[nH]c(=O)c2ccc(OC)cc23)c(C)c1 [Compound 24, ethyl 4-[(8-methoxy-5-oxo-4H-triazolo[1,5-a]quinazolin-3-yl)sulfonyl]-3-methyl-benzoate]
MIC [1]: ≥ 100 µM | LD50 HepG2 [2]: >=100 μM
